Test [1] has as its target T1, BSA (Bos taurus, UniProt P02769).
T1 construct: purchased Sigma-Aldrich A3059
Put plainly: Real-time monitoring of chymotrypsin digestion of BSA using epicocconone. Type of test: biochemical, bovine. The settings on record: bicine pH 7.8, 30° C., chymotrypsin 1:30. How it is done:
• 1. Chymotrypsin digestion was carried out in bicine buffer. • 2. BSA was prepared in 10 mg/mL in 50 mM bicine buffer. • 3. One hundred microliter of the BSA sample was used for chymotrypsin digestion.
• 1. The BSA sample (100 μL) was reduced by adding 5 μL of DTT stock and heating (80° C.) for 10 min. • 2. The sample was alkylated by adding the iodoacetamide (4 μL) stock at room temperature for 45 min-1 hr. • 3. The remaining iodoacetamide of the sample was neutralized by adding DTT (20 μL) and incubating room temp for 45 min-1 hr.
• 1. The reduced and denatured BSA sample from 2.2 was diluted 10-fold in 50 mM bicine buffer (25 μL+225 μL bicine buffer). BSA molar concentration was calculated to be approx. 6 μM. • 2. One hundred microliter of the sample (step 1) was prepared in duplicates and added to a microtiter plate. Controls included a bicine-based digestion buffer, a chymotrypsin sample only and an undigested BSA sample (no chymotrypsin). • 3. Epicocconone stock solution was diluted 100-fold in 50 mM bicine and 100 μL added to each well. The final concentration epicocconone was 12 μM. At this point in time, it required approximately 10 min to get appropriate FluoStar setting conditions. • 4. 2 μL of CaCl2 was added • 5. […] Fluorescence development was monitored in real time every 2 minutes up to 6 hours using FluoStar (Ex/Em=540/630−12). […]

Test [2] has as its target T1, BSA. Description: SDS-PAGE validation of BSA proteolysis in the presence of different fluorophores (Example 7). The test is classed as biochemical, bovine. Conditions: after 120 minutes. The text has this:
The normalised data were used for Prism analysis for obtaining the rate constants. In each case, the protein with fluorophore (open squares) is fitted to a single phase exponential decay (Y=span*exp(−kX)+plateau) and the value for k used as the fixed value for k1 in a two phase exponential decay (Y=span1*exp(−k1X)+span2*exp(−k2X)+plateau) for the protein plus papain (open circles). Through this method it was possible to measure the rate constants for hydrolysis and predict the time point for complete hydrolysis. […] It can be seen from this figure that the bands associated with the protein have disappeared after 120 minutes and that only a faint band for residual papain or trypsin can be seen. In some cases there are also some larger peptide fragments remaining after digestion that are resistant to further hydrolysis.

T1 sequence (P02769 25-607): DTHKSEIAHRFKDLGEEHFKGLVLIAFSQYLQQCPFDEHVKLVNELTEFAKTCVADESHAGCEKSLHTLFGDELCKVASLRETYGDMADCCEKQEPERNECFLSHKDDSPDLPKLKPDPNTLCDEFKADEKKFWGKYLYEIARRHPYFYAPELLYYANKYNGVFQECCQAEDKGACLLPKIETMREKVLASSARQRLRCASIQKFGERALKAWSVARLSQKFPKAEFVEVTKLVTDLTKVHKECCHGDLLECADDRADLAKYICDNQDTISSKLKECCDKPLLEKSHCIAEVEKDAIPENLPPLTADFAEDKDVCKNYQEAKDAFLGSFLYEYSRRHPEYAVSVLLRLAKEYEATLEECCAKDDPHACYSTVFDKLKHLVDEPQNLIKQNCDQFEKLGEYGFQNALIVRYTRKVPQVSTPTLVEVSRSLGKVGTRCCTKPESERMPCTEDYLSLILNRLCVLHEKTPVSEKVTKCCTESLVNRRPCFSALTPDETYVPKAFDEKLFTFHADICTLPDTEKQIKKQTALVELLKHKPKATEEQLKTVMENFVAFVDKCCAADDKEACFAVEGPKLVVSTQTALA

With chymotrypsin, the “apparent first order rate constant” value at BSA [1] was 0.0447 min⁻¹.

B1: papain: Non-specific cysteine protease, Sigma-Aldrich P4762 (protein, UniProt P00784 134-345, looked up)
Papain: IPEYVDWRQKGAVTPVKNQGSCGSCWAFSAVVTIEGIIKIRTGNLNEYSEQELLDCDRRSYGCNGGYPWSALQLVAQYGIHYRNTYPYEGVQRYCRSREKGPYAAKTDGVRQVQPYNEGALLYSIANQPVSVVLEAAGKDFQLYRGGIFVGPCGNKVDHAVAAVGYGPNYILIKNSWGTGWGENGYIRIKRGTGNSYGVCGLYTSSFYPVKN
Take B1: the “digestion of BSA by SDS-PAGE” value with BSA [2] is given as “complete digestion”.

The record behind these values is US20090111104A1, “Method for Monitoring Hydrolytic Activity” (Fluorotechnics Pty Limited, priority 2005, published 2009).
